Assay results: paper PMC6982702, “Extensive Structure Modification on Luteolin-Cinnamic Acid Conjugates Leading to BACE1 Inhibitors with Optimal Pharmacological Properties” (Molecules, 2019)

Key:
BACE1 = target: T1, BACE1 (Homo sapiens, UniProt P56817); assay: In vitro BACE1 FRET enzyme assay; type: biochemical; conditions: BACE1 FRET assay; for inhibition at 10 µM: 10 μM compound, read-out: Inhibition Rate at 10 μM (%)
T1 construct: purchased PanVera Co. (Invitrogen, USA)
Procedure: The BACE1 FRET assay kit was purchased from the PanVera Co. (Invitrogen, USA). The assay was carried out according to the supplied manual with modifications. […] The fluorescence intensity was measured with a TECAN infinite 200 microplate reader for 60 min at 25 °C in the dark. […] The percent inhibition (%) was obtained by the following equation: Inhibition % = (1 −SS/SC) × 100%, where SC is the slope of fluorescence change of the control (enzyme, buffer, and substrate) during 60 min, and SS is the slope of fluorescence change of the tested samples (enzyme, sample solution, and substrate) during 60 min of measurement. IC50 values were calculated from the nonlinear curve fitting of percentage inhibition against inhibitor concentration using Prism 3.0 software (GraphPad Software, San Diego, CA, USA).

MTT cytotoxicity assay = type: cell-based; conditions: human, 24 h exposure
Procedure: It is crucial for the BACE1 inhibitors to exert their activities at sub-toxic concentration, and thus their cytotoxicity was assessed in HEK293 cells by 3-[4,5-dimethylthiazol-2-yl]-2,5-diphenyl-tetrazolium bromide (MTT) assays (Table 5). […] Unfortunately, there was no obvious relationship between the structures and their cytotoxicity.
The cytotoxicity was examined by using 3-[4,5-dimethylthiazol-2-yl]-2,5-diphenyl-tetrazolium bromide (MTT) assay. HEK293T cells were seeded with complete DMEM into 96-well plates ([…], 100 µL/well), incubated at 37 °C in a humidified atmosphere with 5% CO2 for 24 h. All the compounds were diluted with the phenol red-free DMEM at a specific concentration. After 24 h of exposure to different concentrations of compound, the supernatant was removed and then 20% (v/v) MTT (5 mg/mL) diluted with fresh culture medium was added into each well and incubated for 4 h. Cells were lysed with 100 μL dimethyl sulfoxide (DMSO) and shaken for 10 min at room temperature. The absorbance in each well was detected at a wavelength of 490 nm using a Universal Microplate Reader (ELX 800 lv, BIO-TEK Instruments, Inc., Winooski, VT, USA).

[1] = HEK293 cells (method text: HEK293T)

T1 sequence (P56817 46-501): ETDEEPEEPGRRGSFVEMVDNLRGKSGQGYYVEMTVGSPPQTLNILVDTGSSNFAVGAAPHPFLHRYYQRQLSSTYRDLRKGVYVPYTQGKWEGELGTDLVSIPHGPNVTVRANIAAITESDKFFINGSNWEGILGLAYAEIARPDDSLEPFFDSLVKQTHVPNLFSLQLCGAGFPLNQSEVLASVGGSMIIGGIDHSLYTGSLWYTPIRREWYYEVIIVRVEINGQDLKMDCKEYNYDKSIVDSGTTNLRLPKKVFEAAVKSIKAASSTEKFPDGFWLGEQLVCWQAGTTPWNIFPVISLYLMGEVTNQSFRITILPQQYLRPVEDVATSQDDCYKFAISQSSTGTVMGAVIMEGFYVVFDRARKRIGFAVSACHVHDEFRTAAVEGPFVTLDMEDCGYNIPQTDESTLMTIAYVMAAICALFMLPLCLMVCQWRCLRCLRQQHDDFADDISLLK

inhibition at 10 µM (BACE1) [%]	IC50 (BACE1) [µM]	SMILES	IC50 at 24 h (MTT cytotoxicity assay; [1]) [µM]	IC50 at 24 h (MTT cytotoxicity assay; HEK293 cells (method text: HEK293T cells)) [µM]
1.9 ± 10.3		CC(=O)Oc1ccc(/C=C/C(=O)Oc2ccc(-c3cc(=O)c4c(O)cc(O)cc4o3)cc2)cc1 [Compound 4e]		
81.4 ± 3.8	5.26 ± 0.72	O=C(/C=C/c1ccc(O)cc1)OCCCOc1cc(O)c2c(=O)cc(-c3ccc(O)c(O)c3)oc2c1 [Compound 5a, (E)-3-((2-(3,4-dihydroxyphenyl)-5-hydroxy-4-oxo-4H-chromen-7-yl)oxy)propyl 3-(4-hydroxyphenyl)acrylate]		
60.6 ± 5.3	12.9 ± 1.14	O=C(/C=C/c1ccc(O)cc1)OCCOc1ccc2oc(-c3ccc(O)c(O)c3)cc(=O)c2c1 [Compound 4k]		
68.1 ± 5.8	10.4 ± 1.02	O=C(/C=C/c1ccc(O)cc1)OCCCCOc1cc(O)c2c(=O)cc(-c3ccc(O)c(O)c3)oc2c1 [Compound 5b, (E)-4-((2-(3,4-dihydroxyphenyl)-5-hydroxy-4-oxo-4H-chromen-7-yl)oxy)butyl 3-(4-hydroxyphenyl)acrylate]		
53.8 ± 4.4	6.58 ± 1.16	CN(C)c1ccc(/C=C/C(=O)OCCOc2cc(O)c3c(=O)cc(-c4ccc(O)c(O)c4)oc3c2)cc1 [Compound 7h, (E)-2-((2-(3,4-dihydroxyphenyl)-5-hydroxy-4-oxo-4H-chromen-7-yl)oxy)ethyl 3-(4-(dimethylamino)phenyl)acrylate]	> 100	
42.4 ± 3.2		O=C(/C=C/c1ccc(O)cc1)OCCCCCCOc1cc(O)c2c(=O)cc(-c3ccc(O)c(O)c3)oc2c1 [Compound 5d, (E)-6-((2-(3,4-dihydroxyphenyl)-5-hydroxy-4-oxo-4H-chromen-7-yl)oxy)hexyl 3-(4-hydroxyphenyl)acrylate]		
39.6 ± 12.5		O=C(/C=C/c1ccc(O)cc1)OCCOc1cccc(-c2cc(=O)c3c(O)cc(O)cc3o2)c1 [Compound 4d]		
57.5 ± 7.5	2.49 ± 0.32	O=C(C=Cc1ccccc1)OCCOc1cc(O)c2c(=O)cc(-c3ccc(O)c(O)c3)oc2c1 [Compound 7a, 2-((2-(3,4-dihydroxyphenyl)-5-hydroxy-4-oxo-4H-chromen-7-yl)oxy)ethyl cinnamate]	> 100	
20.5 ± 4.4		O=C(/C=C/c1ccc(O)cc1)OCCOc1cc(O)c2c(=O)cc(-c3ccccc3)oc2c1 [Compound 6]	28.3	
23.9 ± 2.95		CC(=O)Oc1ccc(/C=C/C(=O)Oc2cccc(-c3cc(=O)c4c(O)cc(O)cc4o3)c2)cc1 [Compound 4a]		
73.9 ± 7.1	0.96 ± 1.55	O=C(/C=C/c1ccc([N+](=O)[O-])cc1)OCCOc1cc(O)c2c(=O)cc(-c3ccc(O)c(O)c3)oc2c1 [Compound 7g, (E)-2-((2-(3,4-dihydroxyphenyl)-5-hydroxy-4-oxo-4H-chromen-7-yl)oxy)ethyl 3-(4-nitrophenyl)acrylate]	21.8	
29.4 ± 5.5		O=C(/C=C/c1ccc(O)cc1)Oc1ccc(-c2cc(=O)c3c(O)cc(O)cc3o2)cc1 [Compound 4f]		
28.5 ± 7.1		O=C(/C=C/c1ccc(F)cc1)OCCOc1cc(O)c2c(=O)cc(-c3ccc(O)c(O)c3)oc2c1 [Compound 7e, (E)-2-((2-(3,4-dihydroxyphenyl)-5-hydroxy-4-oxo-4H-chromen-7-yl)oxy)ethyl 3-(4-fluorophenyl)acrylate]	16.8	
62.6 ± 6.4	20.6 ± 1.44	O=C(/C=C/c1ccc(O)cc1)OCCCCCOc1cc(O)c2c(=O)cc(-c3ccc(O)c(O)c3)oc2c1 [Compound 5c, (E)-5-((2-(3,4-dihydroxyphenyl)-5-hydroxy-4-oxo-4H-chromen-7-yl)oxy)pentyl 3-(4-hydroxyphenyl)acrylate]		
37.6 ± 4.4		CC(C)(C)c1ccc(/C=C/C(=O)OCCOc2cc(O)c3c(=O)cc(-c4ccc(O)c(O)c4)oc3c2)cc1 [Compound 7j, (E)-2-((2-(3,4-dihydroxyphenyl)-5-hydroxy-4-oxo-4H-chromen-7-yl)oxy)ethyl 3-(4-(tert-butyl)phenyl)acrylate]	20.3	
17.1 ± 6		CC(=O)Oc1ccc(/C=C/C(=O)OCCOc2ccc(-c3cc(=O)c4c(O)cc(O)cc4o3)cc2)cc1 [Compound 4g]		
56.7 ± 4.4	4.39 ± 0.34	O=C(CCc1ccc(O)cc1)OCCOc1cc(O)c2c(=O)cc(-c3ccc(O)c(O)c3)oc2c1 [Compound 7p, 2-((2-(3,4-dihydroxyphenyl)-5-hydroxy-4-oxo-4H-chromen-7-yl)oxy)ethyl 3-(4-hydroxyphenyl)propanoate]	90	
51.9 ± 1.9		O=C(OCCOc1cc(O)c2c(=O)cc(-c3ccc(O)c(O)c3)oc2c1)c1ccc(O)cc1 [Compound 7o, 2-((2-(3,4-dihydroxyphenyl)-5-hydroxy-4-oxo-4H-chromen-7-yl)oxy)ethyl 4-hydroxybenzoate]	10.3	
36 ± 4.2		O=C(/C=C/c1ccc(O)cc1)OCCOc1ccc(-c2cc(=O)c3c(O)cc(O)cc3o2)cc1 [Compound 4h]		
58.2 ± 3.3	27.8 ± 1.34	O=C(/C=C/c1ccc(O)cc1)OCCCCCCCCCCOc1cc(O)c2c(=O)cc(-c3ccc(O)c(O)c3)oc2c1 [Compound 5f, (E)-10-((2-(3,4-dihydroxyphenyl)-5-hydroxy-4-oxo-4H-chromen-7-yl)oxy)decyl 3-(4-hydroxyphenyl)acrylate]		
36.1 ± 2.6		O=C(/C=C/c1ccc(O)cc1)OCCCCCCCCOc1cc(O)c2c(=O)cc(-c3ccc(O)c(O)c3)oc2c1 [Compound 5e, (E)-8-((2-(3,4-dihydroxyphenyl)-5-hydroxy-4-oxo-4H-chromen-7-yl)oxy)octyl 3-(4-hydroxyphenyl)acrylate]		
59.5 ± 7.1	0.37 ± 0.25	O=C(/C=C/c1ccoc1)OCCOc1cc(O)c2c(=O)cc(-c3ccc(O)c(O)c3)oc2c1 [Compound 7l, (E)-2-((2-(3,4-dihydroxyphenyl)-5-hydroxy-4-oxo-4H-chromen-7-yl)oxy)ethyl 3-(furan-3-yl)acrylate]	9.51	
41.4 ± 4.4		O=C(/C=C/c1ccc(O)cc1)Oc1cc(O)c2c(=O)cc(-c3ccc(O)c(O)c3)oc2c1 [Compound 5g]	4.21	
14.8 ± 7.35		O=C(/C=C/c1ccc(O)cc1)Oc1cccc(-c2cc(=O)c3c(O)cc(O)cc3o2)c1 [Compound 4b]		
		O=C(/C=C/c1ccc(O)c(O)c1)OCCOc1cc(O)c2c(=O)cc(-c3ccc(O)c(O)c3)oc2c1 [Compound 7d]		16.7
31.8 ± 5.25		CC(=O)Oc1ccc(/C=C/C(=O)OCCOc2cccc(-c3cc(=O)c4c(O)cc(O)cc4o3)c2)cc1 [Compound 4c]		
59.2 ± 6.3	6.78 ± 0.83	O=C(/C=C/c1ccc(O)cc1)OCCOc1c(-c2ccc(O)c(O)c2)oc2cc(O)cc(O)c2c1=O [Compound 4j, 2-((2-(3,4-dihydroxyphenyl)-5,7-dihydroxy-4-oxo-4H-chromen-3-yl)oxy)ethyl(E)-3-(4-hydroxyphenyl)acrylate]		
37 ± 8.6		O=C(/C=C/c1ccc(O)cc1)OCCOCCOc1ccc(-c2cc(=O)c3c(O)cc(O)cc3o2)cc1 [Compound 4i]		

SMILES	inhibition at 10 µM (BACE1) [%]	IC50 (BACE1) [µM]	IC50 at 24 h (MTT cytotoxicity assay; [1]) [µM]	IC50 at 24 h (MTT cytotoxicity assay; HEK293 cells (method text: HEK293T cells)) [µM]
CC(=O)Oc1ccc(/C=C/C(=O)OCCOc2cc(O)c3c(=O)cc(-c4ccc(O)c(O)c4)oc3c2)cc1 [Compound 7q, (E)-2-((2-(3,4-dihydroxyphenyl)-5-hydroxy-4-oxo-4H-chromen-7-yl)oxy)ethyl 3-(4-acetoxyphenyl)acrylate]	25.7 ± 4.6		> 100	
